# According to patent US8119681B2, “2-[1-phenyl-5-hydroxy or methoxy-4alpha-methyl-hexahydrocyclopenta [ƒ]indazole-5-YL]ethyl phenyl derivatives as glucocorticoid receptor ligands” (Merck Sharp & Dohme Corp., priority 2006, dated 2012):
# Target: T1, glucocorticoid receptor (GR) (Homo sapiens, UniProt P04150)
# T1 construct: endogenous in cells; host or cells: HeLa (ATCC) cell lysate supernatant
# T1 sequence (P04150 1-777): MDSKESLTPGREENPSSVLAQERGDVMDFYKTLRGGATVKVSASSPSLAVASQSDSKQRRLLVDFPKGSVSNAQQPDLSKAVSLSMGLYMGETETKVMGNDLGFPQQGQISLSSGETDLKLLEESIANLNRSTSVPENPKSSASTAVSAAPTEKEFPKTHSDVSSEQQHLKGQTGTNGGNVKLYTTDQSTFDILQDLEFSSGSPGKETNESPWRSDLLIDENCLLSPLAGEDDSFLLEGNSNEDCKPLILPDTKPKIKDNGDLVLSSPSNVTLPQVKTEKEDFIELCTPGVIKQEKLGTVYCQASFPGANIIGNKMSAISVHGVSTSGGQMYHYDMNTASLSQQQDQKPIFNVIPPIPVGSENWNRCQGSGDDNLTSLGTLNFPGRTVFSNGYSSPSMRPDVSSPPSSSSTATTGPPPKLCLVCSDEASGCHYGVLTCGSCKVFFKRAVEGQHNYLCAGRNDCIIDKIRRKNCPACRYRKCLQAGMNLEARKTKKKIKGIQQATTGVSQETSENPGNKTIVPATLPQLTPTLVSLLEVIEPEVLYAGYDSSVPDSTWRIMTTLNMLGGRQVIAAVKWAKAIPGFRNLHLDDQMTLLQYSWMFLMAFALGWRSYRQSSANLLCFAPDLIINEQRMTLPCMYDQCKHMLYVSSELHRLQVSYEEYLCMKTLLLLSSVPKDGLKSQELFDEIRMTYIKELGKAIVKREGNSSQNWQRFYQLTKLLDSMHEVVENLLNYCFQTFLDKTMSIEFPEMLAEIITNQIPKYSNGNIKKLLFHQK
# Assay: Ligand binding assay (GR BIND), 3H-dexamethasone displacement, HeLa cell lysate
# Details: Table 1; HeLa cell lysate, 3H-DEX
# In short: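 HeLa cell lysate supernatant in TEGM (pH 7.2, molybdate) incubated overnight at 4 °C with 3H-dexamethasone trace (6 nM stock) and serially diluted compound, 2% EtOH final. Bound receptor captured on hydroxylapatite, filtered and counted by scintillation; IC50 calculated with dexamethasone as reference.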
row,Structure (SMILES),Ki
1,"CCS(=O)(=O)c1ccccc1CC[C@]1(O)CCC2=Cc3c(cnn3-c3ccc(F)cc3)C[C@@]21C [Example 143, (4αS,5R)-5-{2-[2-(ethylsulfonyl)phenyl]ethyl}-1-(4-fluorophenyl)-4α-methyl-1,4,4α,5,6,7-hexahydrocyclopenta[f]indazol-5-ol]",1.44 nM
2,"CCS(=O)(=O)NCc1c(F)cccc1CC[C@]1(O)CCC2=Cc3c(cnn3-c3ccc(F)cc3)C[C@@]21C [Example 84, N-(2-fluoro-6-{2-[(4αS,5R)-1-(4-fluorophenyl)-5-hydroxy-4α-methyl-1,4,4α,5,6,7-hexahydrocyclopenta[f]indazol-5-yl]ethyl}benzyl)ethanesulfonamide]",0.62 nM
3,"CC(C)(C)NC(=O)c1c(F)cccc1CC[C@]1(O)CCC2=Cc3c(cnn3-c3ccc(F)cc3)C[C@@]21C [Example 59, N-(tert-butyl)-2-fluoro-6-{2-[(4αS,5R)-1-(4-fluorophenyl)-5-hydroxy-4α-methyl-1,4,4α,5,6,7-hexahydrocyclopenta[f]indazol-5-yl]ethyl}benzamide]",1.83 nM
4,"C=C(C)CNC(=O)c1c(F)cccc1CC[C@]1(O)CCC2=Cc3c(cnn3-c3ccc(F)cc3)C[C@@]21C [Example 44, 2-fluoro-6-{2-[(4αS,5R)-1-(4-fluorophenyl)-5-hydroxy-4α-methyl-1,4,4α,5,6,7-hexahydrocyclopenta[f]indazol-5-yl]ethyl}-N-(2-methylprop-2-en-1-yl)benzamide]",0.6 nM
5,"CC(C(N)=O)c1ccccc1CC[C@]1(O)CCC2=Cc3c(cnn3-c3ccc(F)cc3)C[C@@]21C (single isomer, unassigned) [Example 196]",1.8 nM
6,"CNC(=O)Cc1ccccc1CC[C@]1(O)CCC2=Cc3c(cnn3-c3ccc(F)cc3)C[C@@]21C [Example 23, 2-(2-{2-[(4αS,5R)-1-(4-fluorophenyl)-5-hydroxy-4α-methyl-1,4,4α,5,6,7-hexahydrocyclopenta[f]indazol-5-yl]ethyl}phenyl)-N-methylacetamide]",5.09 nM
7,"CCC(O)(C(N)=O)c1ccccc1CC[C@]1(O)CCC2=Cc3c(cnn3-c3ccc(F)cc3)C[C@@]21C (stereo partly drawn) [Example 199, 2-(2-{2-[(4αS,5R)-1-(4-fluorophenyl)-5-hydroxy-4α-methyl-1,4,4α,5,6,7-hexahydrocyclopenta[f]indazol-5-yl]ethyl}phenyl)-2-hydroxybutanamide]",4.55 nM

# Second part, the compound after the results:
row,Ki,Structure (SMILES)
1,0.51 nM,"C[C@]12Cc3cnn(-c4ccc(F)cc4)c3C=C1CC[C@@]2(O)CCc1cccc(F)c1CNS(=O)(=O)CC(F)(F)F [Example 86, 2,2,2-trifluoro-N-(2-fluoro-6-{2-[(4αS,5R)-1-(4-fluorophenyl)-5-hydroxy-4α-methyl-1,4,4α,5,6,7-hexahydrocyclopenta[f]indazol-5-yl]ethyl}benzyl)ethanesulfonamide]"
2,1.55 nM,"COc1cccc(CC[C@]2(O)CCC3=Cc4c(cnn4-c4ccc(F)cc4)C[C@@]32C)c1C(N)=O [Example 189, 2-{2-[(4αS,5R)-1-(4-fluorophenyl)-5-hydroxy-4α-methyl-1,4,4α,5,6,7-hexahydrocyclopenta[f]indazol-5-yl]ethyl}-6-methoxybenzamide]"
3,1.13 nM,"C[C@]12Cc3cnn(-c4ccc(F)cc4)c3C=C1CC[C@@]2(O)CCc1ccccc1S(C)(=O)=O [Example 19, (4αS,5R)-1-(4-fluorophenyl)-4α-methyl-5-{2-[2-(methylsulfonyl)phenyl]ethyl}-1,4,4α,5,6,7-hexahydrocyclopenta[f]indazol-5-ol]"
4,2.37 nM,"C[C@]12Cc3cnn(-c4ccc(F)cc4)c3C=C1CC[C@@]2(O)CCc1ccccc1N1CCC1=O [Example 11, 1-(2-{2-[(4αS,5R)-1-(4-fluorophenyl)-5-hydroxy-4α-methyl-1,4,4α,5,6,7-hexahydrocyclopenta[f]indazol-5-yl]ethyl}phenyl)azetidin-2-one]"
5,0.44 nM,"C[C@]12Cc3cnn(-c4ccc(F)cc4)c3C=C1CC[C@@]2(O)CCc1ccccc1CNS(=O)(=O)C1CC1 [Example 5, N-(2-{2-[(4αS,5R)-1-(4-fluorophenyl)-5-hydroxy-4α-methyl-1,4,4α,5,6,7-hexahydrocyclopenta[f]indazol-5-yl]ethyl}benzyl)cyclopropanesulfonamide]"
6,2.12 nM,"C[C@]12Cc3cnn(-c4ccc(F)cc4)c3C=C1CC[C@@]2(O)CCc1ccc(Cl)cc1C(N)=O [Example 170, 5-chloro-2-{2-[(4αS,5R)-1-(4-fluorophenyl)-5-hydroxy-4α-methyl-1,4,4α,5,6,7-hexahydrocyclopenta[f]indazol-5-yl]ethyl}benzamide]"
7,2.6 nM,"C[C@]12Cc3cnn(-c4ccc(F)cc4)c3C=C1CC[C@@]2(O)CCc1cccc(F)c1[C@@H](N)C(F)(F)F [Example 152, (4αS,5R)-5-(2-{2-[(1R)-1-amino-2,2,2-trifluoroethyl]-3-fluorophenyl}ethyl)-1-(4-fluorophenyl)-4α-methyl-1,4,4α,5,6,7-hexahydrocyclopenta[f]indazol-5-ol]"
8,2.79 nM,"C[C@]12Cc3cnn(-c4ccccc4)c3C=C1CC[C@@]2(O)CCc1ccccc1C(=O)NC1CC1 [Example 42, N-cyclopropyl-2-{2-[(4αS,5R)-5-hydroxy-4α-methyl-1-phenyl-1,4,4α,5,6,7-hexahydrocyclopenta[f]indazol-5-yl]ethyl}benzamide]"
9,2.77 nM,"CCS(=O)(=O)Nc1ccccc1CC[C@]1(O)CCC2=Cc3c(cnn3-c3ccc(F)cc3)C[C@@]21C [Example 114, N-(2-{2-[(4αS,5R)-1-(4-fluorophenyl)-5-hydroxy-4α-methyl-1,4,4α,5,6,7-hexahydrocyclopenta[f]indazol-5-yl]ethyl}phenyl)ethanesulfonamide]"
10,1.48 nM,"C[C@]12Cc3cnn(-c4ccc(F)cc4)c3C=C1CC[C@@]2(O)CCc1cccc(F)c1CC(N)=O [Example 194, 2-(2-fluoro-6-{2-[(4αS,5R)-1-(4-fluorophenyl)-5-hydroxy-4α-methyl-1,4,4α,5,6,7-hexahydrocyclopenta[f]indazol-5-yl]ethyl}phenyl)acetamide]"
